Measured values as given in paper PMC6222487 (Molecules : A Journal of Synthetic Chemistry and Natural …, 2018).
Where two headings read alike, the source gives them in different places.

Experiments:
SH-SY5Y cells = type: cell-based; conditions: for Cytotoxicity (in words): SH-SY5Y cells, up to 500 μM; for Cell viability: SH-SY5Y, 24 h, CCK-8
Experimental: (§1) To probe whether such a type of target compounds involves cytotoxic effects, we respectively treated HepG2 cells and SH-SY5Y cells with several concentrations of the corresponding compound. Cell viability was determined by a CCK-8 assay.
SH-SY5Y cells (human neuroblastoma cell line from American Type Culture Collection, ATCC, Manassas, VA, USA) were seeded into 96-well plates at a density of 4 × 10^4 cells/mL in Dulbecco’s modified Eagle’s medium (DMEM) supplemented with 10% FBS and 100 U/mL of penicillin/streptomycin (Gino Biomedical Technology Co. LTD., Hangzhou, China), and incubated in a humidified atmosphere containing 5% CO2 at 37 °C. […] After this incubation, 10 μL/well of CCK-8 (5 mg/mL) was added and incubated at 37 °C for 4 h. The optical density (OD) of each well was measured using an Epoch Microplate Spectrophotometer (BioTek Instruments, Inc., Winooski, VT, USA) with a test wavelength of 450, 630 nm.

HepG2 cells = type: cell-based; conditions: for Cell viability: 24 h, CCK-8; for Cytotoxicity (in words): HepG2 cells, up to 500 μM
Experimental: as §1, with “One of the best documented side-effects of the drug discovery and development of AD is cytotoxicity. To” for “To”, “assay. […].” for “assay.”
HepG2 cells (human hepatocellular liver carcinoma cell line from American Type Culture Collection, ATCC) were cultured in Eagle’s minimum essential medium (EMEM) supplemented with 10% heat-inactivated fetal bovine serum (FBS), and 100 U/mL of penicillin/streptomycin (Gino Biomedical Technology Co. LTD., Hangzhou, China). Cultures were seeded into flasks containing supplemented medium and maintained at 37 °C in a humidified atmosphere of 5% CO2. For assays, cells (1.0 × 10^5 cells/well) were seeded in a 96-well plate in complete medium, the medium was removed after 24 h, and cells were exposed to the increasing concentrations of compounds 8q or 8r (0, 25, 50, 125, 200, 300, 400, and 500 μM) in DMEM with no serum for a further 24 h. Cell survival was measured through a CCK-8 assay. All compounds were dissolved in pure DMSO.

Aβ (1-42) [1] = biological target: T1, Aβ (1-42) (Homo sapiens, UniProt P05067); test: Aβ (1-42) fibril formation monitored by transmission electron microscopy (TEM); type: biochemical; conditions: Aβ (1-42) 20 µM, compound 50 µM, 37 °C, 24 h
T1 construct: Aβ (1-42) peptide (Sigma-Aldrich); purchased Sigma-Aldrich
Experimental: Aβ (1-42) peptide (Sigma-Aldrich) was added into a 96-well microplate and then diluted by phosphate buffer (10 mM, pH 7.4) to provide a concentration of 100 μM solution at 4 °C before use and the sample preparation procedure was the same as that used for the Thioflavin T assay. Aliquots (5 μL) of the samples were placed on a carbon-coated copper/rhodium grid for 2 min at room temperature. Each grid was stained with phosphomolybdic acid solution (3%, 5 μL) for 2 min. After draining off the excess staining solution, the specimen was transferred for imaging by transmission electron microscopy.

AChE (from electric eel) = biological target: T2, AChE (from electric eel) (Electrophorus electricus, UniProt O42275); test: biochemical; type: biochemical; conditions: for IC50: mean ± SEM, NA = No potent inhibitory activity
T2 construct: purchased Merck & Co
Experimental: (§2) Photometric 96-well microplates made from polystyrene (Thermo Scientific, Waltham, […]. USA) were used for measurement purposes.
(§3) AChE and BuChE inhibitory activities were measured by the spectrophotometric method of Ellman, with slight modification. Briefly, all in vitro assays were performed in 0.1 M NaH2PO4/Na2HPO4 buffer, pH 7.4, using a THERMO Enzyme-labeled Instrument. The enzyme solutions were prepared to obtain 2.0 units/mL in 2.0 mL aliquots. The assay medium (1 mL) consisted of phosphate buffer (pH 7.4), 10 μL of the enzyme, 30 μL of 0.01 M DTNB, and 30 μL of substrate (ATC or BTC) at a concentration of 0.01 M. The test and reference compounds were first dissolved in DMSO (5‰) and fetal bovine serum (1‰), and then diluted in 0.1 M NaH2PO4/Na2HPO4 buffer (pH 7.4) to provide a final concentration range. The inhibitors were added to the assay solution containing enzyme, buffer, and DTNB with pre-incubation for 20 min at 37 °C, prior to the addition of the substrate. The activity was determined by measuring the increase in absorbance at 410 nm at 1 min intervals at 37 °C. The data were calculated according to the method described by Ellman et al. Each concentration was assayed in triplicate. Blanks containing all of the components except AChE were included in the analyses.

Aβ (1-42) [2] = biological target: T1, Aβ (1-42); test: biochemical; conditions: self-induced aggregation, thioflavin-T; Aβ 20 μM, 37 °C, 24 h; NA = No potent inhibitory activity
Experimental: A Thioflavin T-based fluorometric assay was performed in order to investigate the self-induced Aβ (1-42) aggregation. Briefly, compounds to be tested were firstly dissolved in DMSO to obtain a 10 mM solution and then diluted in phosphate buffer (pH 7.4) to provide a final concentration range. […] After incubation, thioflavin-T (5 μM in 50 mM glycine-NaOH buffer, pH 8.0) was added into the above 96-well microplate and the samples were diluted to a final volume of 150 μL. […] Each inhibitor was run in triplicate.

AChE = biological target: T3, AChE (Electrophorus electricus, UniProt O42275); test: Kinetic study of AChE inhibition (Lineweaver-Burk plot); type: biochemical; conditions: substrate 0.1–0.4 mM
T3 construct: purchased Merck & Co
Experimental: The assay solution (100 μL) was afforded by the addition of 30 μL of DTNB (0.01 M), 10 μL of 2 units/mL AChE, and 30 μL of substrate (ATC) to the phosphate buffer (0.1 M, pH 7.0). Three different concentrations of 8q were added to the assay solution with the AChE and pre-incubated for 20 min at 37 °C, followed by the addition of substrate in different concentrations. Kinetic characterization of the hydrolysis of ATC catalysed by AChE was carried out at 410 nm. A parallel control was made with the assay solution of no inhibitor for each time. The plots were assessed by a weighted least square analysis that assumed the variance of V to be a constant percentage of V for the entire data set.
Figure 2 Determination of the inhibitory type of selected compound 8q on AChE. Merged Lineweaver-Burk reciprocal plots of AChE initial velocity with increasing substrate concentrations (0.1–0.4 mM) in the absence or presence of 8q. Lines were derived from a weighted least-squares analysis of data points.

[3] = biological target: T4, BuChE (from equine serum) (Equus caballus, UniProt P81908); test: biochemical; conditions: mean ± SEM
T4 construct: purchased Merck & Co; host or cells: equine serum
Experimental: as §2, §3

T1 sequence (P05067 672-713): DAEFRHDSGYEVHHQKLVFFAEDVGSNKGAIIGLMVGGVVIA
T2 sequence (O42275 24-633): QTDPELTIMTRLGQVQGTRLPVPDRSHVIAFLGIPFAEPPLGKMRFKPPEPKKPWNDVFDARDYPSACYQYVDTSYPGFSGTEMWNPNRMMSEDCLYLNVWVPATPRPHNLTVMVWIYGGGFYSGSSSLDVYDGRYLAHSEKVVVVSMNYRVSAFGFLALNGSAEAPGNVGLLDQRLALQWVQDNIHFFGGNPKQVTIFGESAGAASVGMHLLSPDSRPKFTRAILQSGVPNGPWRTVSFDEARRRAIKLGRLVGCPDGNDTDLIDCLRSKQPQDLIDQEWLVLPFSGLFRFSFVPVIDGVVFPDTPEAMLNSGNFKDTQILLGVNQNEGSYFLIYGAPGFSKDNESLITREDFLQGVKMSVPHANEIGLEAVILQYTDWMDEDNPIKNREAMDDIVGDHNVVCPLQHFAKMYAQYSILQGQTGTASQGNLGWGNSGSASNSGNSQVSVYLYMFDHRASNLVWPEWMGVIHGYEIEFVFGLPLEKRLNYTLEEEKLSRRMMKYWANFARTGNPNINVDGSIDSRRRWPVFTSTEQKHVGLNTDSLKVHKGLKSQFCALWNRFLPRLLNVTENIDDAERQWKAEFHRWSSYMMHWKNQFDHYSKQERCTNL
T4 sequence (P81908 whole entry): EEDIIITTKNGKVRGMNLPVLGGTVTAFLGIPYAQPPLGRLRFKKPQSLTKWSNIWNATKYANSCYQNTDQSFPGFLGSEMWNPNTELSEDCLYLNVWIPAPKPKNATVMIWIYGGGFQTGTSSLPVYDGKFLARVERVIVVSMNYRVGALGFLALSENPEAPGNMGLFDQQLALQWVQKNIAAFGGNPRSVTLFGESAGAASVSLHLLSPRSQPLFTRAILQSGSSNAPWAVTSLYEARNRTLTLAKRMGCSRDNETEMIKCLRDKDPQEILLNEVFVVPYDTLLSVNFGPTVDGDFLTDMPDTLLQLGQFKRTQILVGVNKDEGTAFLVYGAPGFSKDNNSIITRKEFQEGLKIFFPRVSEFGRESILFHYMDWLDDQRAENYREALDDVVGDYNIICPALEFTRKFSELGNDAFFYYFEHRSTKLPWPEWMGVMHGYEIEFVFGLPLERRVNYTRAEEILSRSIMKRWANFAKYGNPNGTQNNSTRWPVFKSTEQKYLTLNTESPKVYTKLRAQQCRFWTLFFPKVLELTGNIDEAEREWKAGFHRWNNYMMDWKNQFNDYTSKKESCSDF
T3 sequence (O42275 24-633): as the sequence (O42275 24-633) above

| SMILES | Cytotoxicity (in words) (SH-SY5Y cells) | Cell viability (SH-SY5Y cells; 25 µM) | Cell viability (SH-SY5Y cells; 50 µM) | Cell viability (SH-SY5Y cells; 125 µM) | Cell viability (SH-SY5Y cells; 200 µM) | Cell viability (SH-SY5Y cells; 300 µM) | Cell viability (SH-SY5Y cells; 400 µM) | Cell viability (SH-SY5Y cells; 500 µM) | Cell viability (HepG2 cells; HepG2, 25 µM) | Cell viability (HepG2 cells; HepG2, 50 µM) | Cell viability (HepG2 cells; HepG2, 125 µM) | Cell viability (HepG2 cells; HepG2, 200 µM) | Cell viability (HepG2 cells; HepG2, 300 µM) | Cell viability (HepG2 cells; HepG2, 400 µM) | Cell viability (HepG2 cells; HepG2, 500 µM) | Cytotoxicity (in words) (HepG2 cells) | IC50 (AChE (from electric eel)) | IC50 (Aβ (1-42) [2]) | IC50 [3] | also measured |
| --- | --- | --- | --- | --- | --- | --- | --- | --- | --- | --- | --- | --- | --- | --- | --- | --- | --- | --- | --- | --- |
| Cc1nc(C)c(/C=C/C(=O)OCCCOC(=O)c2nc(C)c(C)nc2C)nc1C [Compound 8q, 3-{[(2E)-3-(3,5,6-Trimethylpyrazin-2-yl)prop-2-enoyl]oxy}propyl 3,5,6-trimethylpyrazine-2-carboxylate] | no obvious cytotoxicity | 104.30 ± 0.29 ^ns percentage of control | 96.08 ± 0.78 ^ns percentage of control | 80.25 ± 1.53 percentage of control | 72.17 ±0.54 percentage of control | 58.92 ± 0.70 percentage of control | 55.14 ± 0.50 percentage of control | 55.28 ± 0.55 percentage of control | 96.81 ± 3.05 ^ns percentage of control | 91.09 ± 0.99 ^ns percentage of control | 81.19 ± 1.48 percentage of control | 64.81 ± 0.54 percentage of control | 66.75 ± 1.11 percentage of control | 68.89 ± 0.51 percentage of control | 70.10 ± 1.98 percentage of control | no obvious cytotoxicity | 0.00139 ± 0.00033 µM | 17.36 ± 0.027 µM | 4040 ± 910 µM | Aβ amorphous deposits seen by TEM (Aβ (1-42) [1]): could obviously alleviate the formation of Aβ amorphous deposits compared with tacrine; Aβ fibril formation seen by TEM (Aβ (1-42) [1]): no obvious Aβ fibril was detected; Inhibitory type on AChE (AChE): mixed-type inhibitor |
| Cc1nc(C)c(C(=O)OCCCOC(=O)c2ccccn2)nc1C [Compound 8r, 3-[(Pyridine-2-carbonyl)oxy]propyl 3,5,6-trimethylpyrazine-2-carboxylate] | no obvious cytotoxicity | 94.51 ± 0.45 ^ns percentage of control | 91.46 ± 0.29 ^ns percentage of control | 83.23 ± 0.78 percentage of control | 83.26 ± 2.74 percentage of control | 68.43 ± 0.48 percentage of control | 62.68 ± 0.56 percentage of control | 66.38 ± 1.57 percentage of control | 102.83 ± 0.57 ^ns percentage of control | 88.05 ± 1.12 ^ns percentage of control | 81.72 ± 0.87 percentage of control | 71.10 ± 1.06 percentage of control | 71.10 ± 0.80 percentage of control | 68.85 ± 1.11 percentage of control | 68.31 ± 0.53 percentage of control | no obvious cytotoxicity | 0.00025 ± 0.00039 µM | 49.14 ± 0.025 µM | 3300 ± 60 µM | AChE inhibition potency relative to tacrine (AChE (from electric eel); stronger than tacrine): 293 times |
